19 molecules from patent publication US6465523B1, “4-substituted-3-substituted-amino-cyclobut-3-ene-1,2-diones and analogs thereof as novel potassium channel openers” (American Home Products, priority 1998, dated 2002) can be followed below.

As a reminder, the inhibition is the change of the read-out against control, counted positive when it falls. By IC50 is commonly meant the concentration that gives 50% inhibition. In general, melting point refers to the temperature of the solid-liquid transition.

One data set deals with Bladder Tissue. Briefly: Smooth muscle (bladder) relaxing activity: inhibition of KCl-enhanced contractile activity of isolated rat bladder strips. As to conditions: for inhibition at 30 µM / IC50 / Bladder Tissue, I = percent inhibition of contractile activity: rat bladder strips, additional 15 mM KCl; for inhibition at 30 µM / Bladder Tissue, I = percent inhibition of contractile activity: percent inhibition at 30 μM (footnote *); for inhibition at 30 µM: read-out: Bladder Tissue, I = percent inhibition of contractile activity; for IC50: 50% inhibition of pre-drug contractile activity; for Ratio Aorta IC50 / Bladder IC50: selectivity for bladder over aorta tissue, rat. Format: cell-based, Sprague-Dawley rats. On the procedure: The smooth muscle (bladder) relaxing activity of the compounds of this invention was established in accordance with standard pharmaceutically accepted test procedures with representative compounds as follows:
Sprague-Dawley rats (150-200 g) are rendered unconscious by CO2 asphyxiation and then euthanized by cervical dislocation. The bladder is removed into warm (37° C.) physiological salt solution (PSS) of the following composition (mM): NaCl, 118.4; KCl, 4.7; CaCl2, 2.5; […]; NaHCO3, 24.9; KH2PO4, 1.2; glucose, 11.1; EDTA, 0.023; gassed with […]; pH 7.4. The bladder is opened and then cut into strips 1-2 mm in width and 7-10 mm in length. The strips are subsequently suspended in a 10 mL tissue bath under an initial resting tension of 1.5 g. The strips are held in place by two surgical clips one of which is attached to a fixed hook while the other is attached to an isometric force transducer. […] The carbachol is then washed out and the tissue allowed to relax to its resting level of activity. Following a further 30 min. period of recovery an additional 15 mM KCl are introduced into the tissue bath. This increase in KCl concentration results in a large increase in the amplitude of spontaneous contractions (and initiation of contractions in previously quiescent strips) superimposed upon a small increase in basal tone. Following stabilization of this enhanced level .of contractile activity, incremental increases in the concentration of test compound or vehicle are introduced into the tissue bath. Contractile activity is measured for each compoundor vehicle concentration during the last minute of a 30 minute challenge.
The isometric force developed by the bladder strips is measured using a […] to elicit 50% inhibition of pre-drug contractile activity (IC50 concentration) and is calculated from this concentra-tion-response curve.

Another data set relates to Aorta Tissue. Put plainly: Smooth muscle (aorta) relaxing activity: inhibition of KCl-evoked contracture of isolated rat thoracic aorta rings. Format: cell-based, Sprague-Dawley rats. As to conditions: 30-35 mM KCl contracture, 50% inhibition of pre-drug contractile force. The text has this: The smooth muscle (aorta) relaxing activity of the compounds of this invention was established in accordance with standard pharmaceutically accepted test procedures with representative compounds as follows:
Male Sprague-Dawley rats (150-200 g) are rendered unconscious by CO2 asphyxiation and then euthanized by cervical dislocation. The thoracic aorta is removed into warm (37 deg.C.) physiological salt solution (PSS) of the following composition (mM): NaCl; 118.4; KCl, 4.7; CaCl2, 2.5; MgSO4.7H2O, 1.2; NaHCO3, 24.9; KH2PO4, 1.2; glucose, 11.1; EDTA, 0.023; gassed with 95% O2/5% CO2; pH 7.4. The aorta is cleaned of fat and loose adventitia and cut into rings 3-4 mm in width. The rings are subsequently suspended between two stainless steel wire tissue holders in a 10 ml tissue bath. One wire tissue holder is attached to a fixed hook while the other is attached to an isometric force transducer. Resting tension is set at 1 g. The tissues are to recover for a period of 60 mins. prior to beginning the experiment. Tissues are challenged with PSS containing 25 mM KCl to elicit a contracture. The tissues are then washed repeatedly with fresh PSS over a period of 30 mins. and allowed to recover to baseline tension. PSS containing 30-35 mM KCl is then introduced into the tissue bath to evoke a contracture that is allowed to stabilize for not less than 45 minutes. (Other stimuli such as norepine-phrine, PGF2a, histamine, angiotensin II, endothelin or PSS containing 80 mM KCl may also be used to evoke a contracture as necessary). Increasing concentrations of test compound or vehicle are then added to the tissue bath in a cumulative fashion.
Isometric force development by the aortic rings is measured using a force transducer and recorded on a polygraph. The percentage inhibition of contractile force evoked by each concentration of a given test compound is used to generate a concentration-response curve. The concentration of test compound required to elicit 50% inhibition of pre-drug contractile force (IC50 concentration) is calculated from this dose-response curve. (Log concentration versus response curves are approximately linear between 20% and 80% of the maximum response. As such, the IC50 concentration of the drug is determined by linear regression analysis (where x=log concentration and y=% inhibition) of the data points in the 20% to 80% region of the curve]. The maximum percentage inhibition of contractile force evoked by a test compound is also recorded for concentrations of test compound < or = to 30 μM. Data collected from 2 animals are averaged for primary screens.

Take `CC(Nc1c(-c2ccc(C#N)cc2)c(=O)c1=O)C(C)(C)C` (stereo not drawn) [Example 9, 4-[3,4-Dioxo-2-(1,2,2-trimethyl-propylamino)-cyclobut-1-enyl]benzonitrile]: the inhibition at 30 µM with Bladder Tissue turned out to be 27.2%.

Turning to `COc1ccc(-c2c(N(C)C(C)C)c(=O)c2=O)cc1` [Example 3, 3-(Isopropyl-methyl-amino)-4-(4-methoxy-phenyl)-cyclobut-3-ene-1,2-dione], the melting point lay within 109 to 115 °C. Besides, in the data set with Bladder Tissue, the IC50 came out at 12 µM and the “Ratio Aorta IC50 / Bladder IC50” value is reported as 3.85. The molecule also showed an IC50 with Aorta Tissue of 46.2 ± 7.8 µM.

Take `COc1ccc(C(C(C)=O)c2c(N(C(=O)OC(C)(C)C)C(C)C(C)(C)C)c(=O)c2=O)cc1` (stereo not drawn) [Example 24]: the IC50 with Bladder Tissue was found to be 15.9 µM.

Consider `COc1ccc(-c2c(NCCc3ccc(C(C)(C)C)cc3)c(=O)c2=O)cc1` [Example 8, 3-[2-(4-tert-Butyl-phenyl)-ethylamino]-4-(4-methoxy-phenyl)-cyclobut-3-ene-1,2-dione], for which the melting point lay in the range of 258.1 to 260.2 °C. Also, the half-maximal inhibitory concentration (IC50) with Bladder Tissue was 11.2 µM.

On to `CCC(C)(C)Nc1c(-c2ccc(C(F)(F)F)cc2)c(=O)c1=O` [Example 11, 4-(4Trifluoromethyl-phenyl)-3-(1,1-dimethyl-propylamino)-cyclobut-3-ene-1,2-dione], for which the melting point is 115.4 to 119 °C (dec.). Moreover, in the data set on Bladder Tissue, the inhibition at 30 µM turned out to be 34.2%.

Consider `CC(Nc1c(/C=C/c2ccc(Br)cc2)c(=O)c1=O)C(C)(C)C` (stereo not drawn) [Example 26, 3-[(E)-2-(4-Bromo-phenyl)-vinyl]-4-(1,2,2-trimethyl-propylamino)-cyclobut-3-ene-1,2-dione], for which the inhibition at 30 µM in the data set with Bladder Tissue was found to be 15.6%.

Take `COc1ccc(-c2c(NCC(C)c3ccccc3)c(=O)c2=O)cc1` (stereo not drawn) [Example 7, 3-(4-Methoxy-phenyl)-4-(2-phenyl-propylamino)-cyclobut-3-ene-1,2-dione]: the melting point was in the range of 215.4 to 216.2 °C. The inhibition at 30 µM in the data set with Bladder Tissue was found to be 7.4%.

Take “3-(1,1-Dimethyl-2-phenyl-ethylamino)-4-(3-methoxy-phenyl)-cyclobut-3-ene-1,2-dione [Example 25]”: in the data set with Bladder Tissue, the “Bladder Tissue, I = percent inhibition of contractile activity” value is 1 = 30.35%.

On to `CC(=O)C(c1ccc(C(F)(F)F)cc1)c1c(NC(C)C(C)(C)C)c(=O)c1=O` (stereo not drawn) [Example 21, 3-[2-Oxo-1-(4-trifluoromethyl-phenyl)-propyl]-4-(1,2,2-trimethyl-propylamino)-cyclobut-3-ene-1,2-dione], for which, in the data set with Bladder Tissue, the IC50 was 16.2 µM.

In the case of `COc1ccc(Cc2c(NC(C)C(C)(C)C)c(=O)c2=O)cc1.COc1ccc(Cc2c(NC(C)C(C)(C)C)c(=O)c2=O)cc1.COc1ccc(Cc2c(NC(C)C(C)(C)C)c(=O)c2=O)cc1.COc1ccc(Cc2c(NC(C)C(C)(C)C)c(=O)c2=O)cc1.O` (stereo not drawn) [Example 23, 3-(4-Methoxy-benzyl)-4-(1,2,2-trimethyl-propylamino)-cyclobut-3-ene-1,2-dione One-quarter Hydrate], in the data set with Bladder Tissue, the “Bladder Tissue, I = percent inhibition of contractile activity” value is 1 = 10.2%.

With `COc1ccc(-c2c(NCCc3cccc(C(F)(F)F)c3)c(=O)c2=O)cc1` [Example 5, 3-(4-Methoxy-phenyl)-4-[2-(3-trifluoromethyl-phenyl)-ethylamino]-cyclobut-3-ene-1,2-dione], the melting point is 220.2 to 222.3 °C. The inhibition at 30 µM in the data set on Bladder Tissue came out at 9.75%.

For `CCC(C)(C)Nc1c(-c2ccc(OC)cc2)c(=O)c1=O` [Example 2, 3-(1,1-Dimethyl-propylamino)-4-(4-methoxy-phenyl)-cyclobut-3-ene-1,2-dione], the melting point fell in the range of 133 to 135 °C. Besides, in the data set on Bladder Tissue, the half-maximal inhibitory concentration (IC50) came to 2.5 µM and the “Ratio Aorta IC50 / Bladder IC50” value is listed as 15.1. This molecule showed an IC50 in the data set on Aorta Tissue of 37.6 ± 6.05 µM.

As for `COc1ccc(-c2c(NC(C)C(C)(C)C)c(=O)c2=O)cc1` (stereo not drawn) [Example 4, 3-(4-Methoxy-phenyl)-4-(1,2,2-trimethyl-propylamino)-cyclobut-3-ene-1,2-dione], the melting point was 179 to 181 °C. For the same molecule, in the data set on Bladder Tissue, the IC50 was found to be 9.51 µM and the “Ratio Aorta IC50 / Bladder IC50” value is reported as 2.56. In the data set on Aorta Tissue, this molecule yielded an IC50 of 24.2 ± 6.3 µM.

`COc1ccc(-c2c(NC(C)(C)Cc3ccccc3)c(=O)c2=O)cc1` [Example 1, 3-(1,1-Dimethyl-2-phenyl-ethylamino)-4-(4-methoxy-phenyl)-cyclobut-3-ene-1,2-dione]: the melting point was 150 to 151 °C. Moreover, in the data set on Bladder Tissue, the half-inhibitory concentration (IC50) was determined as 1.2 µM and the “Ratio Aorta IC50 / Bladder IC50” value is on record as 2.71. Also, the IC50 in the data set on Aorta Tissue turned out to be 3.25 ± 0.35 µM.

As to `COc1ccc(-c2c(N[C@H](C)c3ccccc3)c(=O)c2=O)cc1` [Example 6, (−)-3-(4-Methoxy-phenyl)-4-((R)-1-phenyl-ethylamino)-cyclobut-3-ene-1,2-dione], the melting point was in the range of 158.7 to 160.1 °C. Besides, in the data set on Bladder Tissue, the IC50 came to 26.9 µM.

Take `CC(Nc1c(-c2ccc(C(F)(F)F)cc2)c(=O)c1=O)C(C)(C)C` (stereo not drawn) [Example 10, 3-(4-Trifluoromethyl-phenyl)-4-(1,2,2-trimethyl-propylamino)-cyclobut-3-ene-1,2-dione]: the IC50 in the data set on Bladder Tissue was found to be 15.6 µM.

Molecule `CC(Nc1c(/C=C/c2ccc(C#N)cc2)c(=O)c1=O)C(C)(C)C` (stereo not drawn) [Example 27, 4-{(E)-2-[3,4-Dioxo-2-(1,2,2-trimethyl-propylamino)-cyclobut-1-enyl]-vinyl}-benzonitrile] yielded a melting point of 240.2 to 241 °C. The IC50 in the data set on Bladder Tissue came out at 2.94 µM.

`CCC(C)(C)Nc1c(-c2cccnc2)c(=O)c1=O.Cl` [Example 12, 3-(1,1-Dimethyl-propylamino)-4-(pyridin-3-yl)-cyclobut-3-ene-1,2-dione Hydrochloride]: the melting point was 152 to 155.9 °C (dec.). For the same molecule, in the data set with Bladder Tissue, the inhibition at 30 µM was 26%.

Consider `CC(Nc1c(-c2ccc(Br)cc2)c(=O)c1=O)C(C)(C)C` (stereo not drawn) [Example 22, 3-(4-Bromo-phenyl)-4-(1,2,2-trimethyl-propylamino)-cyclobut-3-ene-1,2-dione], for which the melting point is 210.6 to 211.3 °C. Moreover, in the data set on Bladder Tissue, the IC50 was found to be 25.7 µM.
